Measured values from ChEMBL document CHEMBL1135339, “Structure-activity relationships of novel anti-malarial agents. Part 4: N-(3-benzoyl-4-tolylacetylaminophenyl)-3-(5-aryl-2-furyl)acrylic acid amides” (Bioorg Med Chem Lett, 2002).

The molecules below were run on Plasmodium falciparum (assay: Inhibitory concentration against multidrug-resistant Plasmodium falciparum Dd2.).
Format: functional, organism-based
`Cc1ccc(CC(=O)Nc2ccc(NC(=O)/C=C/c3ccc(-c4ccc(C(C)(C)C)cc4)o3)cc2C(=O)c2ccccc2)cc1` was tested, and the IC50 was 300 nM.
`Cc1ccc(CC(=O)Nc2ccc(NC(=O)/C=C/c3ccc(-c4ccc([N+](=O)[O-])cc4)o3)cc2C(=O)c2ccccc2)cc1` showed an IC50 of 75 nM.
For `Cc1ccc(CC(=O)Nc2ccc(NC(=O)/C=C/c3ccc(-c4ccccc4)o3)cc2C(=O)c2ccccc2)cc1`, the IC50 was 415 nM.
For `C=Cc1ccc(-c2ccc(/C=C/C(=O)Nc3ccc(NC(=O)Cc4ccc(C)cc4)c(C(=O)c4ccccc4)c3)o2)cc1`, the IC50 was 85 nM.
`Cc1ccc(CC(=O)Nc2ccc(NC(=O)/C=C/c3ccc(-c4ccc(F)cc4)o3)cc2C(=O)c2ccccc2)cc1` gave an IC50 of 320 nM.
With `Cc1ccc(CC(=O)Nc2ccc(NC(=O)/C=C/c3ccc(-c4ccc(C)cc4)o3)cc2C(=O)c2ccccc2)cc1` the IC50 was 120 nM.
Molecule `Cc1ccc(CC(=O)Nc2ccc(NC(=O)/C=C/c3ccc(-c4ccc(Cl)cc4)o3)cc2C(=O)c2ccccc2)cc1` has an IC50 of 145 nM.
`Cc1ccc(CC(=O)Nc2ccc(NC(=O)/C=C/c3ccc(-c4ccc(Br)cc4)o3)cc2C(=O)c2ccccc2)cc1` gave an IC50 of 125 nM.
`CSc1ccc(-c2ccc(/C=C/C(=O)Nc3ccc(NC(=O)Cc4ccc(C)cc4)c(C(=O)c4ccccc4)c3)o2)cc1` was tested, and the IC50 was 84 nM.
For `CCc1ccc(-c2ccc(/C=C/C(=O)Nc3ccc(NC(=O)Cc4ccc(C)cc4)c(C(=O)c4ccccc4)c3)o2)cc1`, the IC50 was 88 nM.
Work on `COc1ccc(-c2ccc(/C=C/C(=O)Nc3ccc(NC(=O)Cc4ccc(C)cc4)c(C(=O)c4ccccc4)c3)o2)cc1` yielded an IC50 of 130 nM.
`Cc1ccc(CC(=O)Nc2ccc(NC(=O)/C=C/c3ccc(-c4ccccc4[N+](=O)[O-])o3)cc2C(=O)c2ccccc2)cc1` was tested, and the IC50 was 670 nM.
Molecule `Cc1ccc(CC(=O)Nc2ccc(NC(=O)/C=C/c3ccc(-c4cccc5ccccc45)o3)cc2C(=O)c2ccccc2)cc1` has an IC50 of 1000 nM.
Molecule `Cc1ccc(CC(=O)Nc2ccc(NC(=O)/C=C/c3ccc(-c4ccc5ccccc5c4)o3)cc2C(=O)c2ccccc2)cc1` has an IC50 of 200 nM.
Molecule `CCCOc1ccc(-c2ccc(/C=C/C(=O)Nc3ccc(NC(=O)Cc4ccc(C)cc4)c(C(=O)c4ccccc4)c3)o2)cc1` has an IC50 of 750 nM.
Work on `CCOc1ccc(-c2ccc(/C=C/C(=O)Nc3ccc(NC(=O)Cc4ccc(C)cc4)c(C(=O)c4ccccc4)c3)o2)cc1` yielded an IC50 of 300 nM.
`Cc1ccc(CC(=O)Nc2ccc(NC(=O)/C=C/c3ccc(-c4cccc([N+](=O)[O-])c4)o3)cc2C(=O)c2ccccc2)cc1` showed an IC50 of 590 nM.
Work on `Cc1ccc(CC(=O)Nc2ccc(NC(=O)/C=C/c3ccc(-c4ccc(OC(F)(F)F)cc4)o3)cc2C(=O)c2ccccc2)cc1` yielded an IC50 of 210 nM.
